Like-named read-outs stand apart in the source and are kept apart here.
Assays:
[1] = DPPH radical-scavenging activity assay; details: for DPPH Radical Scavenging (%) after 30 min / DPPH Radical Scavenging (%) after 60 min: mean ± SD
Description: 2,2-Diphenylpicrylhydrazyl (DPPH) was purchased from Sigma-Aldrich (Steinheim, Germany). DPPH radical-scavenging activity was determined according to the method described by Brand-Williams et al. using (+)-catechin (Sigma-Aldrich, Steinheim, Germany) as the positive control. The chalcone samples were previously dissolved in DMSO and MeOH at the molar concentration of 2 × 10^–3 M. The positive control sample was dissolved in DMSO at the same molar concentration. The DPPH stock solution was diluted 10× with methanol to obtain the concentration of 1 × 10^–4 M. The measurements: 70 μL of the sample was added to 4 mL of the DPPH solution, and the samples were left for 30 or 60 min at room temperature in the dark. The absorbance was recorded at 517 nm by s Varian Cary 50 spectrophotometer. The control was prepared as above without any sample.
DPPH free-radical scavenging activity was calculated using the following Formula (2):(2) Scavenging activity [%]=[Absorbance of control−Absorbance of test sample]/Absorbance control×100 where the absorbance of control is the absorbance of DPPH radicals in the absence of compounds, and the absorbance of the test sample is the absorbance in the presence of the studied compound.

[2] = target: T1, Acetylcholinesterase (AChE, E.C. 3.1.1.7, from human erythrocytes) (Homo sapiens, UniProt P22303); experiment: AChE inhibition (Ellman method); assay type: biochemical
T1 construct: Acetylcholinesterase (AChE, E.C. 3.1.1.7, from human erythrocytes); purchased Sigma-Aldrich (Steinheim, Germany); host or cells: human erythrocytes (natural source)
T1 sequence (P22303 32-617 isoform P22303-2 limits assumed): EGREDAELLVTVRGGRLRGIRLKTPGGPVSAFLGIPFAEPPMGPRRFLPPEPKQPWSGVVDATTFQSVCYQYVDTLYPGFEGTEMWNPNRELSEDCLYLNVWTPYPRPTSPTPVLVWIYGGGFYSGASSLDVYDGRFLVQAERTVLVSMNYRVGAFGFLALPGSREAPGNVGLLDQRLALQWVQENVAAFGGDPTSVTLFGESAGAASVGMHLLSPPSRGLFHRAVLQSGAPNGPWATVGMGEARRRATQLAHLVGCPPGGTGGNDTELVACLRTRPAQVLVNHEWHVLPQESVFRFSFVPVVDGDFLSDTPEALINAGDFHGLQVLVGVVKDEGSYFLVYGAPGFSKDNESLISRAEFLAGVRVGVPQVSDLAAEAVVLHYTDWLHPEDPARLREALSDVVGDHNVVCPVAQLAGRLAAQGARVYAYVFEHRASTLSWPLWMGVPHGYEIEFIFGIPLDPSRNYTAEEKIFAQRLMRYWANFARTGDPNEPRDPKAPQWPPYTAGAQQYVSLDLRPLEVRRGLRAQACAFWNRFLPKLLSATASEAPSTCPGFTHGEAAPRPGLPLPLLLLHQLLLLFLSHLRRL
Description: (§1) The inhibitory activities against AChE and BuChE of the prepared compounds were performed by means of the method previously developed by Ellman et al. using neostigmine as the reference compound [68]. This is based on the reaction of released thiocholine to give a coloured product with a chromogenic reagent. Seven different concentrations of the compounds in the range 10^−9–10^−3 M were measured at 412 nm. All the assays were performed in the 0.1 M NaH2PO4/Na2HPO4 buffer (pH = 8) using the Varian Cary 50 spectrophotometer. 5,5′-Dithio-bis(2-nitrobenzoic acid) (DTNB) was used to measure the anti-AChE activity. […] Briefly, 140 µL of 0.1 mM sodium phosphate buffer (pH 8.0), 20 µL of DTNB, 20 µL of the assay solution and 20 µL of the AChE/BuChE solution were added and incubated for 15 min at 25 °C. The reaction was then initiated by adding 10 µL of acetylthiocholine iodide or butylthiocholine iodide. Yellow anion (2-nitro-5-thiobenzoic acid) formation was recorded at 412 nm for 10 min. It was determined by preparing an identical solution of the enzyme in the absence of tested compounds (as the control). Control and inhibitor readings were corrected with a blank read. All operations were repeated three times. The inhibition properties are reported as the IC50 values, which were determined graphically from the inhibition curves of log inhibitor concentration vs. the percentage of inhibition. The IC50 values represent the concentration of the inhibitor required for 50% inhibition of the enzyme.

[3] = target: T2, butyrylcholinesterase (BuChE, E.C. 3.1.1.8, from equine serum) (Equus caballus, UniProt P81908); experiment: BuChE inhibition (Ellman method); assay type: biochemical
T2 construct: butyrylcholinesterase (BuChE, E.C. 3.1.1.8, from equine serum); purchased Sigma-Aldrich (Steinheim, Germany); host or cells: equine serum (natural source)
T2 sequence (P81908 whole entry): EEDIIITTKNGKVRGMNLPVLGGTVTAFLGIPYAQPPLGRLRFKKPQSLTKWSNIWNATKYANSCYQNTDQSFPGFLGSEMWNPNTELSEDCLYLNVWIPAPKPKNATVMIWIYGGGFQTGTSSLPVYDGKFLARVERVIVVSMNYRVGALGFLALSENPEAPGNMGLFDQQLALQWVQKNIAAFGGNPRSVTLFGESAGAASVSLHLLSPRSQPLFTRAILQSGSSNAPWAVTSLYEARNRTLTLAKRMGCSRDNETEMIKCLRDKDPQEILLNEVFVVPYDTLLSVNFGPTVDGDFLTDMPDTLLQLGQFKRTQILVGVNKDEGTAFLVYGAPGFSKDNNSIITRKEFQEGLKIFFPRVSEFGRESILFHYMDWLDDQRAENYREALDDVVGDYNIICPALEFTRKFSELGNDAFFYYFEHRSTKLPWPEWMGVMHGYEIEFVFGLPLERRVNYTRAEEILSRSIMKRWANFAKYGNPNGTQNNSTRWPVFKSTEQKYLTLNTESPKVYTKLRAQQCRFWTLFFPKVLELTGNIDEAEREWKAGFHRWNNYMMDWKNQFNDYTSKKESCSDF
Description: as §1

[4] = samples dissolved in DMSO (stock 2 × 10^−3 M), three experiments
[5] = samples dissolved in MeOH (stock 2 × 10^−3 M)
[6] = pH 8 phosphate buffer, 25 °C, n = 9, read-out: AChE IC50 Mean ± SD
[7] = pH 8 phosphate buffer, 25 °C, n = 9, read-out: BuChE IC50 Mean ± SD

Row | SMILES | DPPH Radical Scavenging (%) after 30 min [1, 4] [%] | DPPH Radical Scavenging (%) after 30 min [1, 5] [%] | DPPH Radical Scavenging (%) after 60 min [1, 5] [%] | IC50 [2] [µM] | IC50 [3] [µM] | IC50 [2, 6] [µM] | inhibitory properties towards AChE ([2]; result in words) | IC50 [3, 7] [µM] | DPPH Radical Scavenging (%) after 30 min ([1]; samples dissolved in DMSO (stock 2 × 10^−3 M), three experiments, listed as licochalcone A) | DPPH Radical Scavenging (%) after 60 min ([1]; samples dissolved in MeOH (stock 2 × 10^−3 M), listed as licochalcone A) | DPPH radical scavenging (%) ([1]; solvent and time not stated)
1 | Oc1cc(O)c2c(c1)O[C@H](c1ccc(O)c(O)c1)[C@@H](O)C2 [(+)-catechin, reference compound] | 94.14 ± 0.44 |  |  |  |  |  |  |  |  |  | 
2 | COc1cc(O)cc(O)c1C(=O)/C=C/c1ccccc1 [CA, cardamonin] | 2.09 ± 0.05 | 0.79 ± 0.07 | 1.33 ± 0.14 | 67.87 ± 0.01 | 75.29 ± 0.41 |  |  |  |  |  | 
3 | COc1ccc(/C=C/C(=O)c2c(O)cc(OC)cc2OC)cc1 [HCH, 2′-hydroxy-4,4′,6′-trimethoxychalcone] | 2.09 ± 0.03 | 0.30 ± 0.06 | 0.35 ± 0.05 |  |  | > 100 | did not show any inhibitory properties | 76.5 ± 3.03 |  |  | 
4 | CC(C)=CCc1c(O)ccc(C(=O)/C=C/c2ccc(O)cc2)c1O [IBC, isobavachalcone] | 2.36 ± 0.07 | 0.61 ± 0.01 | 1.03 ± 0.06 |  |  | 35.48 ± 0.01 |  | 43.05 ± 0.16 |  |  | 
5 | C=CC(C)(C)c1cc(/C=C/C(=O)c2ccc(O)cc2)c(OC)cc1O [LIC, licochalcone A] | 29.24 ± 0.70 | 26.50 ± 0.92 | 29.60 ± 0.98 | 23.41 ± 0.02 | 42.28 ± 0.06 |  |  |  | ~ 29% | ~ 29% | 29
6 | CN(C)C(=O)Oc1cccc([N+](C)(C)C)c1 [Neostygmine, neostigmine bromide, reference compound] |  |  |  |  | 0.03 ± 0.01 |  |  |  |  |  | 
7 | COc1cc(O)c(CC=C(C)C)c(O)c1C(=O)/C=C/c1ccc(O)cc1 [XN, xanthohumol] | 7.99 ± 0.05 | 4.34 ± 0.05 | 6.72 ± 0.30 |  |  | 40.81 ± 0.04 |  | 65.79 ± 0.34 |  |  | 

Reference: publication PMC10146426, “Naturally Occurring Chalcones with Aggregation-Induced Emission Enhancement Characteristics” (Molecules, 2023)
